Results taken from US6444668B1 (Wyeth, priority 1999, dated 2002).

Key:
[1] = system: rat uterine decidualization; test: Rat decidualization assay; assay type: in vivo; conditions: dose 3 mg/kg
Method: 1. Rat Decidualization Assay
b. Animals (RACUC Protocol #5002)
The animals are treated once daily for seven days.
Uteri are removed and trimmed of fat.
Body weight: Mean total animal body weight (default-kg)
Decidual response: [(D-C)/C]x100%

human PR = target: T1, human PR (Homo sapiens, UniProt P06401); test: PRE-luciferase assay in CV-1 cells; assay type: cell-based; conditions: PR antagonist; CV-1 cells co-transfected with human PR and PRE-luciferase; in the presence of 3 nM progesterone; read-out: hPR CV-1 IC50
T1 construct: expressed in transfected cells; host or cells: CV-1 cells (electroporation)
T1 sequence (P06401 1-933): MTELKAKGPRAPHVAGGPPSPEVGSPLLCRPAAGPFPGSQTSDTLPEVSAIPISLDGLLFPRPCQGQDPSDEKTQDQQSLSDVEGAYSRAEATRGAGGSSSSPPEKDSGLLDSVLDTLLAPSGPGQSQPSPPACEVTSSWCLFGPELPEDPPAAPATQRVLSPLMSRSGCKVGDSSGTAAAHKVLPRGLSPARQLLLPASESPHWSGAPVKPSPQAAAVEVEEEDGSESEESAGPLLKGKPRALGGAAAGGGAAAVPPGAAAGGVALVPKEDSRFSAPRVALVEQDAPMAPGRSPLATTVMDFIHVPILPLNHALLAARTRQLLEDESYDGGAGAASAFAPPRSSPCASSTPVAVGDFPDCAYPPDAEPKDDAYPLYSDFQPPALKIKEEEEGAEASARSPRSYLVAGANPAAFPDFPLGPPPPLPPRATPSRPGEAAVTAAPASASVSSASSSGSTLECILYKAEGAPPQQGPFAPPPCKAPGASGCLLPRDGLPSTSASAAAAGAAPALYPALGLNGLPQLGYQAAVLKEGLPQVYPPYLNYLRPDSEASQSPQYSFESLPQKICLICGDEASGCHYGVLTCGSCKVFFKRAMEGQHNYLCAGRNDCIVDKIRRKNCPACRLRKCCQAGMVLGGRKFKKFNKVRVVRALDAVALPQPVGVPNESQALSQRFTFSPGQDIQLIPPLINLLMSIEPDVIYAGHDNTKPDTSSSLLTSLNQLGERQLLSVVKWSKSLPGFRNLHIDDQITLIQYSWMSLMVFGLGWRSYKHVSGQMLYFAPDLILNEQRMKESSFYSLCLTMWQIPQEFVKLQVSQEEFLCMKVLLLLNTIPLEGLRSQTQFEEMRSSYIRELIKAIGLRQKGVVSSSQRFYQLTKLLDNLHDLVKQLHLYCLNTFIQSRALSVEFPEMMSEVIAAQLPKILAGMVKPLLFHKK
Method: 2. PRE-luciferase Assay in CV-1 to Cells
The object of this assay is to determine a compound's progestational or antiprogestational potency based on its effect on PRE-luciferase reporter activity in CV-1 cells co-transfected with human PR and PRE-luciferase plasmids. The materials methods used in the assay are as follows.
The growth medium was as follows: DMEM (BioWhittaker) containing 10% (v/v) fetal bovine serum (heat inactivated), 0.1 mM MEM non-essential amino acids, 100U/ml penicillin, […] streptomycin, and 2 mM GlutaMax (GIBCO, BRL). The experimental medium was as follows: DMEM (BioWhittaker), phenol red-free, containing 10% (v/v) charcoal-stripped fetal bovine serum (heat-inactivated), 0.1 mM MEM non-essential amino acids, 100U/ml penicillin […] streptomycin, and 2 mM GlutaMax (GIBCO, BRL).
b. Cell Culture, Transfection, Treatment, and Luciferase Assay
Stock CV-1 cells are maintained in growth medium Co-transfection is done using 1.2×10^7 cells, 5 mg pLEM plasmid with hPR-B inserted at Sph1 and BamH1 sites, 10 mg pGL3 plasmid with two PREs upstream of the luciferase sequence, and 50 mg sonicated calf thymus DNA as carrier DNA in […]. […] Luciferase activity is measured using luciferase reagents from Promega.
Each treatment consists of at least 4 replicates. […] EC50 or IC50 values are calculated from the retransformed values.

- IC50 (human PR): 30 nM
SMILES: CC1(C)OC(=O)Nc2ccc(-c3coc(C#N)c3)cc21 [Compound 7, 4-(44-Dimethyl-2-oxo-1,4-dihydro-2H-benzo[d][1,3]oxazin-6-yl)-furan-2-carbonitrile]
- Decidualization, percentage inhibition at the dose specified [1]: 75% @ 3
